US9096586B2, “Therapeutic compounds” (Gilead Sciences, Inc., priority 2012, dated 2015)

The compounds below were run on HIV-IIIb (assay: Test A: Antiviral Assays in MT4 Cells). Settings: Human immunodeficiency virus 1, IIIB, MT4, 120 h, MT-4 cells infected with HIV-IIIb (0.004 m.o.i.), 5 days incubation, CellTiter-Glo readout.
Assay type: cell-based
Experimental: Test A: Antiviral Assays in MT4 Cells
For the antiviral assay utilizing MT-4 cells, 0.4 μL of […] test concentration of 3-fold serially diluted compound in DMSO was added to 40 μL of cell growth medium (RPMI 1640, 10% FBS, 1% penicilline/Streptomycine, 1% L-Glutamine, 1% HEPES) in each well of 384-well assay plates (10 concentrations) in quadruplicate.
1 mL aliquots of 2×10e6 MT-4 cells are pre-infected for 1 and 3 hrs respectively, @ 37° C. with 25 uL (MT4) or of either cell growth medium (mock-infected) or a fresh 1:250 dilution of an HIV-IIIb concentrated ABI stock (0.004 m.o.i. for MT4 cells). Infected and uninfected cells are diluted in cell growth medium and 35 uL of 2000 (for MT4) cells is added to each well of the assay plates.
Assay plates were then incubated in a 37° C. incubator. After 5 days of incubation, 25 μl of 2× concentrated CellTiter-Glo™ Reagent (catalog #G7573, Promega Biosciences, Inc., Madison, Wis.) was added to each well of the assay plate. Cell lysis was carried out by incubating at room temperature for 2-3 min and then chemiluminescence was read using the Envision reader (PerkinElmer).
Accordingly, the compounds disclosed herein (e.g. compound of the invention) may be useful for treating the proliferation of the HIV virus, treating AIDS or delaying the onset of AIDS or ARC symptoms.
`Cc1cc2nc(-c3cnc4[nH]cc(C)c4c3)sc2c(-c2ccc(Cl)cc2)c1[C@](C)(OC(C)(C)C)C(=O)O` [Compound 112, (S)-methyl 2-tert-butoxy-2-(7-(4-chlorophenyl)-5-methyl-2-(3-methyl-1H-pyrrolo[2,3-b]pyridin-5-yl)benzo[d]thiazol-6-yl)acetic acid] gave an EC50 of 28 nM.
Work on `Cc1cc2nc(N3CCC(Oc4ccccc4)C3)sc2c(-c2ccc(Cl)cc2)c1[C@H](OC(C)(C)C)C(=O)O` (stereo partly drawn) [Compound 126, (2S)-2-tert-butoxy-2-(7-(4-chlorophenyl)-5-methyl-2-(3-phenoxypyrrolidin-1-yl)benzo[d]thiazol-6-yl)acetic acid] yielded an EC50 of 722 nM.
`Cc1cc2nc(-c3ccnc(-c4cnn(Cc5ccccc5)c4)c3)sc2c(-c2ccc(Cl)cc2)c1[C@H](OC(C)(C)C)C(=O)O` [Compound 150] showed an EC50 of 91 nM.
